Measurements taken from patent publication US20240016788A1, “PHARMACEUTICAL COMPOSITION FOR PREVENTING OR TREATING DIABETIC AND POSTMENOPAUSAL OSTEOPOROSIS, CONTAINING ADIPORON” (PnP Biopharm Co., Ltd., priority 2020, published 2024).

Experiments:
non-diabetic db/m mice = test: Body weight, blood biochemistry and 24-hour urine oxidative stress in non-diabetic db/m mice; type: in vivo; conditions: adiporon 30 mg/kg/day in diet for 4 weeks, mean ± SD
Protocol: A leptin receptor-defective type 2 diabetic animal model (db/db mice) and a normal control group (db/m mice) were used, and the experiment was performed by dividing into 4 groups as follows: non-diabetic control group (dm cont, n=8), non-diabetic adiporon treatment group (dm+AdipoR, n=8), diabetic control group (db cont, n=8) and diabetic adiporon treatment group (db+AdipoR, n=8). The control group was fed a normal diet, and the adiporon treatment group was fed a diet comprising adiporon (30 mg/kg/day) for 4 weeks from 16 weeks of age. During the experiment, body weight was measured every week, fasting blood glucose was measured using an Accu-Chek meter (Roche Diagnostics, St. Louis, MO) every 2 weeks after blood was collected from the tail vein, and glycated hemoglobin (HbA1c) was measured every 4 weeks using a […] automatic analyzer (Bayer healthcare LLC, IN) after blood was collected from the tail vein. The temperature and humidity of the breeding room were maintained at 20˜25° C. and 50˜60%, respectively, and the lights were turned on and off at 12-hour intervals. In both experiments, blood collected from each mouse was allowed to stand at room temperature for 30 minutes, and then centrifuged at 3000 rpm for 15 minutes to obtain serum. Blood levels of tartrate-resistant acid phosphatase (TRAP/ACP5) and osterocalcin concentration were measured by ELISA. In addition, 8-hydroxy-deoxyguanosine, a DNA damage marker caused by oxidative stress, and isoprostane, a marker of oxidative stress caused by lipid peroxidation caused by free fatty acids, and deoxypyridinoline (DPP), which indicates the function of osteoclasts, were measured in 24-hour urine concentrations by ELISA method.

[1] = tested on: ovariectomized C57BL/6 mice; test: Micro-CT of ilium (femur) and lumbar vertebra 5, ovariectomized mice; type: in vivo; conditions: 6 weeks
Protocol: 7 weeks after ovariectomization or sham surgery of 7-week-old C57BL/6 mice, normal feed group (adiporon non-administered group; control group) administration group, 2.5 mg/kg day or 25 mg/kg day, respectively Feed comprising adiporon was consumed for 6 weeks from 14 weeks of age. Body weight was measured every week during the experiment period, and the experiment was conducted after 6 weeks of administration. The imaging was performed with micro-CT (Skyscan 1172, Belgium), the tube voltage was 60 kV, the tube current was 167 uA, 0.5 mm aluminum filtration was used, and the pixel size was 5.9 μm. For the shooting angle, a 2-dimensional image was reconstructed with Nrecon Reconstruction (Skyscan, Belgium). For 3D image analysis, CTAn (Skyscan, Belgium) was used, images were obtained by rotating 360°, and exposure time was 440 ms. A total of 7 types of indicators were used in this invention. BMD (bone mineral density, bone density) was measured based on phantoms of 0.25 g/cm^3 and 0.75 g/cm^3. BV/TV (Bone volume/Total volume, percent bone volume, %) is the ratio of voxels representing the solid region out of the total voxels present in the binarized and surfaced volume of interest, and it means the ratio occupied by bone trabeculae within the volume of interest, and i.s (Interception surfaces, mm2) means the generation of new bone. i.s (Interception surfaces, mm^2) means the creation of new bone. BS/BV (Bone surface/Bone volume, bone specific surface, mm^−1) is the ratio of the voxel surface area to the number of voxels in the binarized solid region within the volume of interest and it means the ratio of the surface area of the trabecular bone to the volume of the trabecular bone. The lower the value, the higher the bone strength. Tb.Th (trabecular thickness, mm) is obtained by averaging the diameters of these spheres, after placing a sphere comprising the corresponding voxel for each voxel representing the solid region within the volume of interest so that the size of the sphere is the largest that includes only the solid region and it means the average thickness of the trabecular bone. After making it possible, it is obtained by averaging the diameters of these spheres, which means the average thickness of the trabecular bone. In the same way, using Tb.Sp (trabecular separation, mm), the average length between trabecular lines and Tb.N (trabecular number, mm^−1) were used to obtain the average number of trabecular lines.

[2] = vertebrae (lumbar vertebrae 5), adiporon 2.5 mg/kg day
[3] = vertebrae (lumbar vertebrae 5), adiporon 25 mg/kg day

Cl.O=C(COc1ccc(C(=O)c2ccccc2)cc1)NC1CCN(Cc2ccccc2)CC1 [adiporon]
136 ± 8 mg/dL: Blood glucose (non-diabetic db/m mice)
2.5 ± 0.4 mmol/L: Serum TC (non-diabetic db/m mice)
1.4 ± 0.2 mmol/L: Serum TG (non-diabetic db/m mice)
4.3 ± 2.2 ng/24 h: Urinary isoprostane (non-diabetic db/m mice)
11214 ± 1214 ng/mL: Serum adiponectin (non-diabetic db/m mice)
3.8 ± 0.2%: HbA1c (non-diabetic db/m mice)
increased and improved: Bone mineral density indicator (micro-CT) ([1]; ilium, adiporon 2.5 mg/kg day) | Bone surface indicator (micro-CT) ([1]; ilium, adiporon 2.5 mg/kg day) | Bone volume indicator (micro-CT) ([1]; ilium, adiporon 2.5 mg/kg day) | Trabecular number indicator (micro-CT) ([1]; ilium, adiporon 2.5 mg/kg day) | Trabecular thickness indicator (micro-CT) ([1]; ilium, adiporon 2.5 mg/kg day) | Bone mineral density indicator (micro-CT) ([1]; ilium, adiporon 25 mg/kg day) | Bone surface indicator (micro-CT) ([1]; ilium, adiporon 25 mg/kg day) | Bone volume indicator (micro-CT) ([1]; ilium, adiporon 25 mg/kg day) | Trabecular number indicator (micro-CT) ([1]; ilium, adiporon 25 mg/kg day) | Trabecular thickness indicator (micro-CT) ([1]; ilium, adiporon 25 mg/kg day) | Bone mineral density indicator (micro-CT) [1, 2] | Bone surface indicator (micro-CT) [1, 2] | Bone volume indicator (micro-CT) [1, 2] | Trabecular number indicator (micro-CT) [1, 2] | Trabecular thickness indicator (micro-CT) [1, 2] | Bone mineral density indicator (micro-CT) [1, 3] | Bone surface indicator (micro-CT) [1, 3] | Bone volume indicator (micro-CT) [1, 3] | Trabecular number indicator (micro-CT) [1, 3] | Trabecular thickness indicator (micro-CT) [1, 3]
36.5 ± 14.5 ng/24 h: Urinary 8-OHDG (non-diabetic db/m mice)
0.67 ± 0.23 mEq/I: Serum NEFA (non-diabetic db/m mice)
